Measurements from PubChem BioAssay (NCI).
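Briefly, cells in 96-well plates were exposed to five compound concentrations for 48 h, and endpoints were estimated by linear interpolation. TGI: concentration producing complete growth inhibition.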

Legend:
Assay in all cases: growth of human tumour cells (NCI), 48 h
SNB-78 CNS = test system: SNB-78 CNS
ACHN renal = test system: ACHN renal
NCI-H522 lung = test system: NCI-H522 lung
NCI-H226 lung = test system: NCI-H226 lung
MOLT-4 leukemia = test system: MOLT-4 leukemia
786-0 renal = test system: 786-0 renal
DMS 114 small cell lung = test system: DMS 114 small cell lung
U251 CNS = test system: U251 CNS
TK-10 renal = test system: TK-10 renal
HT29 colon = test system: HT29 colon
NCI-H460 lung = test system: NCI-H460 lung
LOX IMVI melanoma = test system: LOX IMVI melanoma
SNB-75 CNS = test system: SNB-75 CNS
SK-MEL-2 melanoma = test system: SK-MEL-2 melanoma
DMS 273 small cell lung = test system: DMS 273 small cell lung
NCI-H23 lung = test system: NCI-H23 lung
SF-295 CNS = test system: SF-295 CNS
SR leukemia = test system: SR leukemia
HL-60(TB) leukemia = test system: HL-60(TB) leukemia
MALME-3M melanoma = test system: MALME-3M melanoma
HOP-18 NSCLC = test system: HOP-18 NSCLC
SK-MEL-28 melanoma = test system: SK-MEL-28 melanoma
HOP-92 NSCLC = test system: HOP-92 NSCLC
M19-MEL melanoma = test system: M19-MEL melanoma
HCT-15 colon = test system: HCT-15 colon
RPMI-8226 leukemia = test system: RPMI-8226 leukemia
K-562 leukemia = test system: K-562 leukemia
A549 NSCLC = test system: A549 NSCLC
EKVX NSCLC = test system: EKVX NSCLC
UACC-62 melanoma = test system: UACC-62 melanoma
HCC-2998 colon = test system: HCC-2998 colon
SNB-19 CNS = test system: SNB-19 CNS
CCRF-CEM leukemia = test system: CCRF-CEM leukemia
OVCAR-3 ovarian = test system: OVCAR-3 ovarian
RXF 393 renal = test system: RXF 393 renal
OVCAR-5 ovarian = test system: OVCAR-5 ovarian
KM20L2 colon = test system: KM20L2 colon
UO-31 renal = test system: UO-31 renal
SN12C renal = test system: SN12C renal
SW-620 colon = test system: SW-620 colon
XF 498 CNS = test system: XF 498 CNS
LXFL 529 NSCLC = test system: LXFL 529 NSCLC
A498 renal = test system: A498 renal
SF-268 CNS = test system: SF-268 CNS
CAKI-1 renal = test system: CAKI-1 renal
SF-539 CNS = test system: SF-539 CNS
OVCAR-4 ovarian = test system: OVCAR-4 ovarian
OVCAR-8 ovarian = test system: OVCAR-8 ovarian
DLD-1 colon = test system: DLD-1 colon
UACC-257 melanoma = test system: UACC-257 melanoma
HCT-116 colon = test system: HCT-116 colon
KM12 colon = test system: KM12 colon
M14 melanoma = test system: M14 melanoma
SK-MEL-5 melanoma = test system: SK-MEL-5 melanoma
SK-OV-3 ovarian = test system: SK-OV-3 ovarian
HOP-62 NSCLC = test system: HOP-62 NSCLC
RXF-631 renal = test system: RXF-631 renal
IGROV1 ovarian = test system: IGROV1 ovarian
COLO 205 colon = test system: COLO 205 colon

**Q.** With `O=c1c2cc3ccccc3n2c(=O)c2cc3ccccc3n12` as the compound, how does the TGI (SNB-78 CNS) read?
**A.** > 100 µM

**Q.** And the TGI (ACHN renal)?
**A.** > 100 µM

**Q.** What about the TGI (NCI-H522 lung) of the same compound?
**A.** > 100 µM

**Q.** And the TGI (NCI-H226 lung)?
**A.** > 100 µM

**Q.** And the TGI (MOLT-4 leukemia)?
**A.** > 100 µM

**Q.** What about the TGI (786-0 renal) of the same compound?
**A.** > 100 µM

**Q.** And the TGI (DMS 114 small cell lung)?
**A.** > 100 µM

**Q.** And the TGI (U251 CNS)?
**A.** > 100 µM

**Q.** What about the TGI (TK-10 renal) of the same compound?
**A.** > 100 µM

**Q.** And the TGI (HT29 colon)?
**A.** > 100 µM

**Q.** What about the TGI (NCI-H460 lung) of the same compound?
**A.** > 100 µM

**Q.** And the TGI (LOX IMVI melanoma)?
**A.** > 100 µM

**Q.** And the TGI (SNB-75 CNS)?
**A.** > 100 µM

**Q.** What about the TGI (SK-MEL-2 melanoma) of the same compound?
**A.** > 100 µM

**Q.** What about the TGI (DMS 273 small cell lung) of the same compound?
**A.** > 100 µM

**Q.** And the TGI (NCI-H23 lung)?
**A.** > 100 µM

**Q.** What about the TGI (SF-295 CNS) of the same compound?
**A.** > 100 µM

**Q.** And the TGI (SR leukemia)?
**A.** > 100 µM

**Q.** And the TGI (HL-60(TB) leukemia)?
**A.** > 100 µM

**Q.** What about the TGI (MALME-3M melanoma) of the same compound?
**A.** > 100 µM

**Q.** And the TGI (HOP-18 NSCLC)?
**A.** > 100 µM

**Q.** And the TGI (SK-MEL-28 melanoma)?
**A.** > 100 µM

**Q.** What about the TGI (HOP-92 NSCLC) of the same compound?
**A.** > 100 µM

**Q.** What about the TGI (M19-MEL melanoma) of the same compound?
**A.** > 100 µM

**Q.** And the TGI (HCT-15 colon)?
**A.** > 100 µM

**Q.** What about the TGI (RPMI-8226 leukemia) of the same compound?
**A.** > 100 µM

**Q.** And the TGI (K-562 leukemia)?
**A.** > 100 µM

**Q.** And the TGI (A549 NSCLC)?
**A.** > 100 µM

**Q.** And the TGI (EKVX NSCLC)?
**A.** > 100 µM

**Q.** What about the TGI (UACC-62 melanoma) of the same compound?
**A.** > 100 µM

**Q.** And the TGI (HCC-2998 colon)?
**A.** > 100 µM

**Q.** And the TGI (SNB-19 CNS)?
**A.** > 100 µM

**Q.** And the TGI (CCRF-CEM leukemia)?
**A.** > 100 µM

**Q.** What about the TGI (OVCAR-3 ovarian) of the same compound?
**A.** > 100 µM

**Q.** And the TGI (RXF 393 renal)?
**A.** > 100 µM

**Q.** And the TGI (OVCAR-5 ovarian)?
**A.** > 100 µM

**Q.** And the TGI (KM20L2 colon)?
**A.** > 100 µM

**Q.** And the TGI (UO-31 renal)?
**A.** > 100 µM

**Q.** What about the TGI (SN12C renal) of the same compound?
**A.** > 100 µM

**Q.** What about the TGI (SW-620 colon) of the same compound?
**A.** > 100 µM

**Q.** And the TGI (XF 498 CNS)?
**A.** > 100 µM

**Q.** What about the TGI (LXFL 529 NSCLC) of the same compound?
**A.** > 100 µM

**Q.** And the TGI (A498 renal)?
**A.** > 100 µM

**Q.** What about the TGI (SF-268 CNS) of the same compound?
**A.** > 100 µM

**Q.** What about the TGI (CAKI-1 renal) of the same compound?
**A.** > 100 µM

**Q.** And the TGI (SF-539 CNS)?
**A.** > 100 µM

**Q.** And the TGI (OVCAR-4 ovarian)?
**A.** > 100 µM

**Q.** What about the TGI (OVCAR-8 ovarian) of the same compound?
**A.** > 100 µM

**Q.** What about the TGI (DLD-1 colon) of the same compound?
**A.** > 100 µM

**Q.** What about the TGI (UACC-257 melanoma) of the same compound?
**A.** > 100 µM

**Q.** What about the TGI (HCT-116 colon) of the same compound?
**A.** > 100 µM

**Q.** What about the TGI (KM12 colon) of the same compound?
**A.** > 100 µM

**Q.** And the TGI (M14 melanoma)?
**A.** > 100 µM

**Q.** And the TGI (SK-MEL-5 melanoma)?
**A.** > 100 µM

**Q.** For `C=C1C(OC(C)=O)CC(OC(C)=O)C2(C)C(OC(C)=O)C(OC(C)=O)C3=C(C)C(OC(=O)/C=C/c4ccccc4)CC(C(OC(C)=O)C12)C3(C)C` (stereo not drawn), which TGI (SNB-78 CNS) is on record?
**A.** > 100 µM

**Q.** What about the TGI (ACHN renal) of the same compound?
**A.** > 100 µM

**Q.** And the TGI (SK-OV-3 ovarian)?
**A.** > 100 µM

**Q.** And the TGI (NCI-H522 lung)?
**A.** > 100 µM

**Q.** What about the TGI (NCI-H226 lung) of the same compound?
**A.** > 100 µM

**Q.** And the TGI (MOLT-4 leukemia)?
**A.** > 100 µM

**Q.** And the TGI (786-0 renal)?
**A.** > 100 µM

**Q.** And the TGI (DMS 114 small cell lung)?
**A.** > 100 µM

**Q.** What about the TGI (U251 CNS) of the same compound?
**A.** > 100 µM

**Q.** What about the TGI (TK-10 renal) of the same compound?
**A.** > 100 µM

**Q.** And the TGI (HT29 colon)?
**A.** > 100 µM

**Q.** And the TGI (NCI-H460 lung)?
**A.** > 100 µM

**Q.** And the TGI (HOP-62 NSCLC)?
**A.** > 100 µM

**Q.** And the TGI (LOX IMVI melanoma)?
**A.** > 100 µM

**Q.** What about the TGI (RXF-631 renal) of the same compound?
**A.** > 100 µM

**Q.** What about the TGI (SNB-75 CNS) of the same compound?
**A.** 43.4 µM

**Q.** And the TGI (SK-MEL-2 melanoma)?
**A.** > 100 µM

**Q.** What about the TGI (DMS 273 small cell lung) of the same compound?
**A.** > 100 µM

**Q.** What about the TGI (SF-295 CNS) of the same compound?
**A.** > 100 µM

**Q.** What about the TGI (SR leukemia) of the same compound?
**A.** > 100 µM

**Q.** What about the TGI (HL-60(TB) leukemia) of the same compound?
**A.** > 100 µM

**Q.** What about the TGI (MALME-3M melanoma) of the same compound?
**A.** > 100 µM

**Q.** And the TGI (HOP-18 NSCLC)?
**A.** > 100 µM

**Q.** And the TGI (HOP-92 NSCLC)?
**A.** 65.7 µM

**Q.** What about the TGI (M19-MEL melanoma) of the same compound?
**A.** > 100 µM

**Q.** And the TGI (HCT-15 colon)?
**A.** > 100 µM

**Q.** And the TGI (RPMI-8226 leukemia)?
**A.** > 100 µM

**Q.** And the TGI (K-562 leukemia)?
**A.** > 100 µM

**Q.** What about the TGI (A549 NSCLC) of the same compound?
**A.** > 100 µM

**Q.** What about the TGI (UACC-62 melanoma) of the same compound?
**A.** > 100 µM

**Q.** And the TGI (HCC-2998 colon)?
**A.** > 100 µM

**Q.** What about the TGI (SNB-19 CNS) of the same compound?
**A.** > 100 µM

**Q.** And the TGI (CCRF-CEM leukemia)?
**A.** > 100 µM

**Q.** And the TGI (RXF 393 renal)?
**A.** > 100 µM

**Q.** What about the TGI (OVCAR-5 ovarian) of the same compound?
**A.** > 100 µM

**Q.** What about the TGI (KM20L2 colon) of the same compound?
**A.** > 100 µM

**Q.** And the TGI (UO-31 renal)?
**A.** > 100 µM

**Q.** What about the TGI (SN12C renal) of the same compound?
**A.** > 100 µM

**Q.** What about the TGI (SW-620 colon) of the same compound?
**A.** > 100 µM

**Q.** And the TGI (IGROV1 ovarian)?
**A.** > 100 µM

**Q.** And the TGI (LXFL 529 NSCLC)?
**A.** > 100 µM

**Q.** And the TGI (A498 renal)?
**A.** > 100 µM

**Q.** And the TGI (SF-268 CNS)?
**A.** > 100 µM

**Q.** And the TGI (CAKI-1 renal)?
**A.** > 100 µM

**Q.** And the TGI (SF-539 CNS)?
**A.** > 100 µM

**Q.** And the TGI (OVCAR-4 ovarian)?
**A.** > 100 µM

**Q.** And the TGI (OVCAR-8 ovarian)?
**A.** > 100 µM

**Q.** What about the TGI (DLD-1 colon) of the same compound?
**A.** > 100 µM

**Q.** What about the TGI (UACC-257 melanoma) of the same compound?
**A.** > 100 µM

**Q.** What about the TGI (HCT-116 colon) of the same compound?
**A.** > 100 µM

**Q.** What about the TGI (KM12 colon) of the same compound?
**A.** > 100 µM

**Q.** What about the TGI (M14 melanoma) of the same compound?
**A.** > 100 µM

**Q.** And the TGI (SK-MEL-5 melanoma)?
**A.** > 100 µM

**Q.** What about the TGI (COLO 205 colon) of the same compound?
**A.** > 100 µM
